Our source for the IC50 and Ratio IC50 values is ChEMBL document CHEMBL5625234, “Magic shotgun approach to anti-inflammatory pharmacotherapy: Synthesis of novel thienopyrimidine monomers/heterodimer as dual COX-2 and 15-LOX inhibitors endowed with potent antioxidant activity” (Eur J Med Chem, 2023).

The nature of experiment [1]: Inhibition of soybean 15-LOX using arachidonic acid/linolenic acid as substrate preincubated for 5 mins followed by substrate addition and measured after 10 mins by absorbance based assay. The arrangement: species or system Glycine max.
Experiment [2] concerns RAW264.7. Description: cells. To be noted: Mus musculus.
For experiment [3], the target named is T1, Prostaglandin G/H synthase 1 (Ovis aries, UniProt P05979).
T1 sequence (P05979 whole entry): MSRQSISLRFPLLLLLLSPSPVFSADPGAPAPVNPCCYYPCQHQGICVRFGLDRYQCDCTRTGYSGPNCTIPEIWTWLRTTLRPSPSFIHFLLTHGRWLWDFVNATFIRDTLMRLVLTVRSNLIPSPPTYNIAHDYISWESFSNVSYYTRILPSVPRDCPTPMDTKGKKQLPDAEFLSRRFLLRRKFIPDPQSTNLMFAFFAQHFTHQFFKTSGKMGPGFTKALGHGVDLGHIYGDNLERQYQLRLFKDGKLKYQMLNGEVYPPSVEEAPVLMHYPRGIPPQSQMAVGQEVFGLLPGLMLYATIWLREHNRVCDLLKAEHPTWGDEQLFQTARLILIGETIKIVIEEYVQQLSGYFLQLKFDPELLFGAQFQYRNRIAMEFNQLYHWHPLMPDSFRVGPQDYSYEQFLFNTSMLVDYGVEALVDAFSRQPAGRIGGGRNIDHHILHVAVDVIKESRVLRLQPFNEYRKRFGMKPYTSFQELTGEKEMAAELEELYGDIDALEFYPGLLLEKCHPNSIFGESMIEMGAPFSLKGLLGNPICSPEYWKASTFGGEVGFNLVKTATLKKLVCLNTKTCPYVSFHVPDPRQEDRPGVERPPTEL
Description: Inhibition of ovine COX-1 using arachidonic acid as substrate preincubated for 10 mins followed by substrate addition and measured after 2 mins by ELISA.

Experiment [4] concerns RAW264.7. Description: cells. To be noted: Mus musculus. This is another data set of the same source.
The target in experiment [5] is COX-1/COX-2 (Homo sapiens) (UniProt P35354+P23219). Description: Selectivity index, ratio of IC50 for inhibition of human COX-1 to IC50 for inhibition of human COX-2. The class given is protein assay.
Experiment [6] concerns the target T2, Prostaglandin G/H synthase 2 (Homo sapiens, UniProt P35354).
T2 sequence (P35354 whole entry): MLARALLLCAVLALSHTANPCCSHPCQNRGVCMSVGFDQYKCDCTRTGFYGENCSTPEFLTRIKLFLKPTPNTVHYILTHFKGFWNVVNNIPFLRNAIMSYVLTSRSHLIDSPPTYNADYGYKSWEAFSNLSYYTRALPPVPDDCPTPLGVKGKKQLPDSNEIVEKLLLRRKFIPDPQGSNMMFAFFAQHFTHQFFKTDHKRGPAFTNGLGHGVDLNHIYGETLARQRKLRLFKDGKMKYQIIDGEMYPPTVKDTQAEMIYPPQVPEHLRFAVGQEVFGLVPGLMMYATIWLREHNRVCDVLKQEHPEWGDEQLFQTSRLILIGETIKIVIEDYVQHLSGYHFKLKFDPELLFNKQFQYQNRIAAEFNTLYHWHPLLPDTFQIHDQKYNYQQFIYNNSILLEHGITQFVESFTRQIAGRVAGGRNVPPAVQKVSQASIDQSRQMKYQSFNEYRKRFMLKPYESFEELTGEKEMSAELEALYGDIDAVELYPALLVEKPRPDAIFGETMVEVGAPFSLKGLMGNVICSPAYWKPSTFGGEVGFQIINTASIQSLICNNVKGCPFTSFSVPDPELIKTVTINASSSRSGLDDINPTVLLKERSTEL
Description: Inhibition of human COX-2.

The nature of experiment [7]: Inhibition of soybean 15-LOX using arachidonic acid as substrate preincubated with compound followed by substrate addition and measured after 5 mins by absorbance based microplate reader. On the set-up: species or system Glycine max.
Experiment [8] has as its system RAW264.7. Description: cells. To be noted: Mus musculus. This is another data set of the same source.
For experiment [9], the system named is RAW264.7. Description: cells. To be noted: Mus musculus. The source holds these as a separate data set.
For experiment [10], the species on record is Ovis aries. Description: Selectivity index, ratio of IC50 for inhibition of ovine COX-1 to IC50 for inhibition of ovine COX-2.
The target in experiment [11] is T3, Prostaglandin G/H synthase 2 (Ovis aries, UniProt P79208).
T3 sequence (P79208 whole entry): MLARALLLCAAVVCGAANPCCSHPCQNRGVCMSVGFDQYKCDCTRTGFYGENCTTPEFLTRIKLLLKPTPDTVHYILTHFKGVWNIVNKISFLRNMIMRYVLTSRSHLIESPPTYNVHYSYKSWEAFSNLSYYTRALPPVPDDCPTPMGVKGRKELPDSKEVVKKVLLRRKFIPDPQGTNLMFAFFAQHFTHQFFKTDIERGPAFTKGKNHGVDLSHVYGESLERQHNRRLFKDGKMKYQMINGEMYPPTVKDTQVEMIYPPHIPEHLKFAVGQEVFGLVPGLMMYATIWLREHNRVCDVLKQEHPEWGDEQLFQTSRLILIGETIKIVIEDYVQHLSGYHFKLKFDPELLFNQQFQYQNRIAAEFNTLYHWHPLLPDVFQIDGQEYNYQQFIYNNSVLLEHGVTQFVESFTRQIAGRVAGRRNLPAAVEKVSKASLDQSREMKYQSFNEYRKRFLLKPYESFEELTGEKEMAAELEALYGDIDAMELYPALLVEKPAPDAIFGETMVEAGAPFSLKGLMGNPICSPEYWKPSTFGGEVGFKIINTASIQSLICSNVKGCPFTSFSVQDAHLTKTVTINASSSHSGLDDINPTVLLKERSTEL
Description: Inhibition of ovine COX-2 using arachidonic acid as substrate preincubated for 5 mins followed by substrate addition and measured after 2 mins by colorimetric assay.

Experiment [12] deals with T4, Polyunsaturated fatty acid lipoxygenase ALOX15 (Homo sapiens, UniProt P16050).
T4 sequence (P16050 whole entry): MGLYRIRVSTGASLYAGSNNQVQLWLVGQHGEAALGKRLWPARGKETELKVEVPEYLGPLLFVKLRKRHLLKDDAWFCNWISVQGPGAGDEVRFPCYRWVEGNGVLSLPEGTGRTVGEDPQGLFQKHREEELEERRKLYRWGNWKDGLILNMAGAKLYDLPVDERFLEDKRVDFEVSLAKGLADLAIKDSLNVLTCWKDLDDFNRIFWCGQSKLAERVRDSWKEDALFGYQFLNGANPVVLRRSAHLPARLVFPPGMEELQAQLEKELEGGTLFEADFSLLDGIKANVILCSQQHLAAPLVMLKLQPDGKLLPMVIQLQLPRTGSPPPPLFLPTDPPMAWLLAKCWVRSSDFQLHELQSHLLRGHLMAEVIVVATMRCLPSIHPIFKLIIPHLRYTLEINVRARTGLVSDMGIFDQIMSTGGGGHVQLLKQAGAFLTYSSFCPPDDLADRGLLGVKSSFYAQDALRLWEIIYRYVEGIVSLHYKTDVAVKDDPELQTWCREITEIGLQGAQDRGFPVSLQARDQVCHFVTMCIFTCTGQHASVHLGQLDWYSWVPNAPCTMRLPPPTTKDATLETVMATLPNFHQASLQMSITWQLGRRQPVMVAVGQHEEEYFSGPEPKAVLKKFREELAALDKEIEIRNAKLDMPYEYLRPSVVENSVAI
Description: Inhibition of 15-LOX (unknown origin) using linoleic acid as substrate incubated for 5 mins by absorbance based assay.

The target of experiment [13] is T2, Prostaglandin G/H synthase 2. Description: Inhibition of human COX-2 using arachidonic acid as substrate incubated for 30 secs by ELISA. A general note: An ELISA detects its analyte on a solid surface through an enzyme-linked reagent.

Sequence of COX-1/COX-2 (Homo sapiens) (P23219 whole entry, looked up, one chain of several): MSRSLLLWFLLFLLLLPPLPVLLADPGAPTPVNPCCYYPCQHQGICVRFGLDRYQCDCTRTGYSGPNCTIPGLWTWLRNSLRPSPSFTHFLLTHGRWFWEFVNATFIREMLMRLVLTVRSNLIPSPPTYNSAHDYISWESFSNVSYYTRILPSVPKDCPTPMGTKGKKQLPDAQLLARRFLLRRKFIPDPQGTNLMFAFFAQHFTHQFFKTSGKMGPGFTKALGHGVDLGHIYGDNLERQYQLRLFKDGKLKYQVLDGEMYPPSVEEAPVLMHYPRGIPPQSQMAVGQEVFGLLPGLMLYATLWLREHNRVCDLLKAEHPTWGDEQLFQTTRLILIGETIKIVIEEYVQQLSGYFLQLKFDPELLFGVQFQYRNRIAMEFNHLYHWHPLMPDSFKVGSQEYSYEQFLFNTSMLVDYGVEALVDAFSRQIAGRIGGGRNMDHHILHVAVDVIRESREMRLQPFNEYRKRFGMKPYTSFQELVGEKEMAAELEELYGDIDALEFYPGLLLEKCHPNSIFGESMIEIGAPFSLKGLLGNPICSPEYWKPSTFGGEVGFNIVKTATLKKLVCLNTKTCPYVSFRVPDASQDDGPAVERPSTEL

`COc1ccc(-c2nc(NNc3ncnc4sc5c(c34)CCCC5)c3c4c(sc3n2)CCCC4)cc1`: the figures for the IC50 in experiment [1], in experiment [2] and in [3] were 1.86 µM, more than 100 µM and 11.3 µM, respectively.

Regarding `COc1cc(-c2nc(Nc3ccc(F)cc3)c3c4c(sc3n2)CCCC4)cc(OC)c1OC`, the IC50 was 2.29 µM in experiment [1], 168 µM in [4], more than 100 µM in [2] and 10.9 µM in experiment [3].

For the compound `O=[N+]([O-])c1ccc(-c2nc(Nc3ccc(F)cc3)c3c4c(sc3n2)CCCC4)cc1`, the IC50 in experiment [1] is 3.63 µM; in [2], more than 100 µM; in experiment [3], 7.18 µM.

Regarding `Cc1ccc(Nc2nc(-c3ccc([N+](=O)[O-])cc3)nc3sc4c(c23)CCCC4)cc1`, the IC50 is 2.76 µM in experiment [1], more than 100 µM in [2] and 8.2 µM in experiment [3].

For the compound `CSc1nnc2n(Cc3ccccc3)c(=O)c3c4c(sc3n12)CCCC4`, in experiment [5], the Ratio IC50 was 192. In [6], the IC50 was determined as 0.52 µM.

Regarding `O=C(C/C(=C/c1cccc([N+](=O)[O-])c1)c1n[nH]c(=S)o1)c1ccc(Cl)c(Cl)c1`, the IC50 in [7] was found to be 1.63 µM; in [3], 10.4 µM.

In the case of `COc1ccc(-c2nc(Nc3ccc(F)cc3)c3c4c(sc3n2)CCCC4)cc1`, the IC50 is 1.97 µM in [1], more than 100 µM in [2], more than 100 µM in experiment [8] and 11.4 µM in experiment [3].

Take `COc1ccc(-c2nc(Nc3ccc(Br)cc3)c3c4c(sc3n2)CCCC4)cc1`: the IC50 in experiment [1] is 2.4 µM; in experiment [2], more than 100 µM; in experiment [3], 9.53 µM.

For `Cc1ccc(Nc2nc(-c3ccc(Cl)cc3)nc3sc4c(c23)CCCC4)cc1`, the IC50 in experiment [1] was 4.49 µM; in [9] it was more than 100 µM; in experiment [2] it was more than 100 µM; in experiment [3], 8.2 µM.

As for `Clc1ccc(-c2nn(-c3ccccc3)cc2/C=N/Nc2ncnc3c(-c4ccccc4)csc23)cc1`, the Ratio IC50 in [10] was 248. In [11], this compound came in with an IC50 of 0.048 µM.

With `Fc1ccc(Nc2nc(-c3ccc(Cl)cc3)nc3sc4c(c23)CCCC4)cc1`, the values for the IC50 in [1], in [8] and in experiment [3] were 4.81 µM, more than 100 µM and 5.82 µM, respectively.

The compound `CCn1c(-n2cc(/C=N/N=c3\scc(-c4ccc(Br)cc4)n3-c3ccccc3)c(-c3ccc(Cl)cc3)n2)nc2[nH]c(=O)n(C)c(=O)c21` returned an IC50 in [12] of 1.76 µM.

Turning to `COc1cc(-c2nc(Nc3ccc(C)cc3)c3c4c(sc3n2)CCCC4)cc(OC)c1OC`, the IC50 was 2.66 µM in experiment [1]; more than 100 µM in [9]; more than 100 µM in [2]; more than 100 µM in experiment [8]; 8.5 µM in [3].

Take `O=[N+]([O-])c1ccc(-c2nc(Nc3ccc(Br)cc3)c3c4c(sc3n2)CCCC4)cc1`: the IC50 in [1] is 3.41 µM; in experiment [4] it was more than 100 µM; in experiment [2] it was more than 100 µM; in experiment [3], 9.87 µM.

With `O=[N+]([O-])c1ccc(-c2nc(Nc3cccc(Br)c3)c3c4c(sc3n2)CCCC4)cc1`, the IC50 is 3.99 µM in experiment [1], more than 100 µM in experiment [2] and 6.49 µM in experiment [3].

Turning to `COc1cc(/C=C2\S/C(=N/c3nnc(C)s3)NC2=O)cc(OC)c1OC`, the IC50 in experiment [1] came out at 10.9 µM; in experiment [3], 12.3 µM.

Take `Clc1ccc(-c2nc(Nc3cccc(Br)c3)c3c4c(sc3n2)CCCC4)cc1`: the IC50 in experiment [1] is 3.36 µM; in experiment [9], more than 100 µM; in experiment [2], more than 100 µM; in experiment [3], 8.55 µM.

Take `CS(=O)(=O)c1ccc(C2CN(c3ccc(C(F)(F)F)cc3)N=N2)cc1` (centres undefined): the midpoint of inhibition in experiment [13], the IC50, lay at 0.226 µM.

Consider `Clc1ccc(-c2nc(Nc3ccc(Br)cc3)c3c4c(sc3n2)CCCC4)cc1`, for which the results for the IC50 in [1], in [2] and in [3] were 2.11 µM, more than 100 µM and 9.12 µM, respectively.

Turning to `O=c1[nH]/c(=C\c2nnc(-c3ccc(O)cc3)s2)s/c1=C\c1ccc(Cl)c(Cl)c1`, the IC50 in experiment [1] is 11.9 µM; in experiment [3] it was 15.4 µM.

As to `CCn1c(-n2cc(/C=N/N=c3\scc(-c4ccc(Br)cc4)n3-c3ccccc3)c(-c3ccc(OC)cc3)n2)nc2[nH]c(=O)n(C)c(=O)c21`, in experiment [12], the IC50 was determined as 1.82 µM.

For orientation: IC50 means the midpoint of a concentration-inhibition curve.
